Series [1] in a line: UV absorption spectra of the compounds, avobenzone and their combinations. As to conditions: for UV absorption: 320 nm and 400 nm, each compound alone. The series is classed as physicochemical. The procedure: (§1) In both cases, the absorptivity of these two compounds were studied. In addition, photostability of these two compounds were also assessed by taking a second UV absorption spectra after exposing the compounds to UV. Photostability of sun screening compounds are of critical importance as a compound would be completely ineffective if they lose their UV absorptive qualities shortly after being exposed to solar radiation.
Avobenzone is an example for a known chemical UV absorber that can be combined.

The nature of series [2]: Photostability: UV absorption spectra before and after UV exposure. As to conditions: before vs after UV exposure; 290 nm to 400 nm; FIGS. 2 and 4. The series is classed as physicochemical. The procedure: as §1
Turning to FIG. 2, this set of spectra show the effects of UV exposure on 3-hydroxy-2-methoxy-cyclo-2-enone, avobenzone, and combinations thereof over a wavelength range of 290 nm and 400 nm. A first spectrum 210 and a second spectrum 212 are for avobenzone before and after UV exposure. A third spectrum 220 and a fourth spectrum 222 are for 3-hydroxy-2-methoxy-cyclo-2-enone before and after UV exposure, respectively. A fifth spectrum 230 and a sixth spectrum 232 correspond to a combination of 3-hydroxy-2-methoxy-cyclo-2-enone and avobenzone at a ratio of 1:2 before and after UV exposure, respectively. Finally, a seventh spectrum 240 and an eighth spectrum 242 correspond to a combination of 3-hydroxy-2-methoxy-cyclo-2-enone and avobenzone at a ratio of 2:1 before and after UV exposure, respectively.
A first spectrum 410 and a second spectrum 412 are for avobenzone before and after UV exposure. […]

With 3-Hydroxy-2-methoxy-cyclo-2-enone, the UV absorption entry in series [1] (FIG. 1) is reported as “relatively low”. The “absorbance at 320 nm relative to strongest absorbance” value in series [1] (at 320 nm, FIG. 1) is given as “drops off by approximately half”. For the same molecule, the “wavelength of strongest (maximum) UV absorption” value in series [1] (compound alone) is “around 262 nm”. Also, the “change of UV absorption after UV exposure (photostability)” value in series [2] was “dropped overall”.
As to `COc1ccc(C(=O)CC(=O)c2ccc(C(C)(C)C)cc2)cc1` [avobenzone, reference compound], the UV absorption entry in series [1] (FIG. 1) is recorded as “relatively low”. In addition, the “change of UV absorption after UV exposure (photostability)” value in series [2] is reported as “dropped overall”.

Values taken from patent US10064797B2, “Topical formulations for UV protection” (TOPGENIX, INC., priority 2014, dated 2018).
